Here are results for seven compounds from patent publication US10011571B2, “Preparation method for aromatic heterocyclic compound used as selective JAK3 and/or JAK1 kinase inhibitor and application of aromatic heterocyclic compound” (SHENZHEN CHIPSCREEN BIOSCIENCES, LTD., priority 2014, dated 2018).

Assay [1] deals with JAK3 (Homo sapiens (Human), UniProt P52333). Put plainly: Z'-LYTE enzymatic activity detection, JAK3. Format: biochemical. The note with it: test compound 30 nM; for inhibition at 0.03 µM: read-out: JAK3 % inhibitory rate @30 nM. As to the method: (§1) The basic principle of in vitro enzymatic activity assay is based on the difference between the intensities of fluorescence signals generated at different wavelengths (445 nm and 520 nm) from the phosphorylated substrate and non-phosphorylated substrate, in which the specific fluorescence-labeled substrate is phosphorylated by the kinase. When different test compounds are added, the inhibition of kinase activity is represented as the different degrees of substrate phosphorylation, and thus as the different intensities of fluorescence signal, based on which the inhibitory activity of the compound on the kinase can be calculated. Basic detection principle is illustrated in FIG. 1.
(§2) In an enzymatic inhibitory activity detection, GST-labeled human recombinant JAK kinases, including JAK1/PV4774, JAK2/PV4210, JAK3/PV3855, TYK2/PV4790 and their corresponding specific substrates, including Tyr6 (Z′-LYTE® Kinase Assay Kit-Tyrosine 6 Peptide, JAK1/PV4122), Tyr4 (Z′-LYTE® Kinase Assay Kit-Tyrosine 4 Peptide, JAK2/PV3193), Tyr4 (Z′-LYTE® Kinase Assay Kit-Tyrosine 4 Peptide, JAK3/PV3193), Tyr3 (Z′-LYTE® Kinase Assay Kit-[…], TYK2/PV3192) are used. In all tests, development reagent A (PV3297) was used as the test agent. All materials mentioned above were purchased from Invitrogen.
(§3) (1) Preparation: kinase reaction buffer (working solution) is prepared according to the instruction; a concentration gradient of the test compound is prepared by dilution using the kinase reaction buffer (the highest compound concentration is 10 μM for JAK1, JAK2, and TYK2 detection, and 1 μM for JAK3 detection, respectively).
(§4) (2) 10 μl of reaction system, comprising 2.5 μL test compound, 5 μL kinase reaction buffer and 2.5 μL ATP solution (provided by the kit), is mixed and reaction is performed at room temperature for 1 h.
(§5) (3) Controls, including a solvent control without the test compound, a negative control without ATP and a positive control with the phosphorylated substrate, are tested together with the detection. All tests are carried out in triplicate.
(§6) (4) After the enzymatic reaction, 5 μL pre-formulated development buffer is added, and reaction is performed at room temperature for 1 h. Subsequently, the reaction is terminated by adding 5 μL stop buffer.
(§7) (5) The fluorescence signal in each well is detected by an Ascent Fluoroskan FL reader (Thermo Labsystems) at an excitation wavelength of 400 nm, and emission wavelengths of 445 nm and 520 nm. The proportion of substrate phosphorylation is obtained by reference to the fluorescence signal intensity C445/F520.
(§8) (6) The enzymatic inhibitory rate of the test compound can be calculated based on the following equation: Inhibitory rate (%)=1−the proportion of substrate phosphorylation in the detection well/the proportion of substrate phosphorylation in the solvent control well. The half-inhibitory concentration (IC50) can be calculated using an IC50 calculator based on the inhibitory rates of phosphorylation for the test compounds at different concentration gradients.
(§9) Based on the above method, the compounds described herein are enzymatically evaluated in vitro for JAKs (the concentration of the test compound is 30 nM for JAK3 and JAK2 test, and 300 nM for JAK1 test) using Xeljanz (tofacitinib citrate) as the positive control.

Assay [2] relates to CTLL-2 cells. Kind of assay: Cell growth activity assay (MTS), CTLL-2 cell model. Format: cell-based, mouse. The settings on record: Mus musculus, CTLL-2, 300 nM, 24 h, read-out: CTLL-2 % growth rate @300 nM. An excerpt: (§10) MTS assay is a routine method for cell toxicity detection. The basic principle is based on the capacity of dehydrogenase in the mitochondria of living cells to reduce a novel yellow […] MTS to formazan, so that the amount of living cells is proportional to the amount of formazan product by detecting the absorbance at 490 nm (OD), thereby speculating the amount of living cells according to the OD value, and understanding the capacity of the test compound to inhibit the growth of cells or to kill the cells.
In this experiment, mouse T-cell line CTLL-2 was used. The proliferation and growth of this cell line strongly depend on IL-2, and it is commonly used to evaluate the active titer of exogenous IL-2. By inhibiting the activity of kinase JAK1/3, the proliferation of CTLL-2 can be inhibited under in vitro culture. The activation and proliferation of T-cell is also important pathological characteristics for various immunological diseases. Thus, this model is also pathologically related.
By comparing the change of absorbance generated by the cells treated by the test compounds using MTS assay, the growth inhibitory activity of the test compounds on the model cells can be realized, and thereby potential inhibitory activity of the compounds on JAK1/3 pathway can be evaluated.
(§11) MTS is performed according to routine procedure in a 96-well plate.
The model cells are inoculated into each well of the 96-well plate at an appropriate concentration (about 20,000 cells/well). After 24 h, the test compounds are added at different concentration gradients (the highest concentration of 10 μM). A solvent control (DMSO) and a negative control are also performed at the same time. Each experiment is repeated for 3 times. The cells are detected after cultured for another 24 h.
CTLL-2 is a suspended cell. After incubation, 20 μL pre-formulated mixture of MTS and PMS (in a ratio of 20:1) is directly added to each well. After incubation at 37° C. for 2 h, it is then detected by a microplate reader (490 nm).
The effect of the test compound on cell growth is calculated by comparing the change of OD values between the test well and the solvent control well, after subtracting the background of the negative control. For the test compounds at different concentration gradients, the inhibitory rates on the growth of model cells and their half-growth inhibitory concentrations (GI50) are each calculated.
Based on the above method, cytological evaluation is performed to the compounds described herein (for the detection of CTLL-2 cell, the concentration of the test compound is 300 nM; for the detection of HeLa and HUVEC cell, the concentration of the test compound is […]).

Assay [3] deals with JAK1 (Homo sapiens (Human), UniProt P23458). Kind of assay: Z'-LYTE enzymatic activity detection, JAK1. Format: biochemical. The note with it: test compound 300 nM; for inhibition at 0.3 µM: read-out: JAK1 % inhibitory rate @300 nM. As to the method:
as §1, §2, §3, §4, §5, §6, §7, §8, §9

Assay [4] concerns the target JAK2 (Homo sapiens (Human), UniProt O60674). Put plainly: Z'-LYTE enzymatic activity detection, JAK2. Type of assay: biochemical. The note with it: test compound 30 nM; for inhibition at 0.03 µM: read-out: JAK2 % inhibitory rate @30 nM. As to the method: as §1, §2, §3, §4, §5, §6, §7, §8, §9
In assay [5] the test system is HeLa cells. Kind of assay: Cell growth activity assay (MTS), HeLa cell model. Type of assay: cell-based, human. Details: activity: dose or concentration left out as unconfirmed. The note with it: Homo sapiens, HeLa, 72 h, read-out: HeLa % growth rate.
Text: as §10
HeLa cell is a human cervical cancer cell line, and belongs to epithelial tumor cell line; HUVEC is a human umbilical vein endothelial cell, and belongs to primary endothelial cell; both types of cells express all subtypes except for JAK3.
The change of JAK kinase activity has no significant influence on other cell types except for the immune cells, and both cell models mentioned above are mainly used to evaluate whether there are any other kinase targets besides JAK kinases or there are nonselective cell toxicities.
In this experiment, a cultured cell model is incubated with the test compounds at different concentrations for a specific duration. The effect of the treatment by the test compound on the growth of cells is detected using MTS assay.
as §11
The model cells are inoculated into each well of the 96-well plate at an appropriate concentration (about 5000 cells/well). After 24 h, the test compounds are added at different concentration gradients (the highest final concentration is 40 μM). A solvent control (DMSO) and a negative control are also performed at the same time. Each experiment is repeated for 3 times. The cells are detected after cultured for another 72 h.
After all culture medium is aspirated out of the well, 100 μL fresh medium and 20 μL pre-formulated mixture of MTS and PMS (in a ratio of 20:1) are added to each well. After incubation at 37° C. for 2 h, it is then detected by a microplate reader (490 nm).
The cell growth inhibitory rate and GI50 of the test compound are calculated as above.
Based on the above method, cytological evaluation is performed to the compounds described herein (for the detection of CTLL-2 cell, the concentration of the test compound is 300 nM; […]).

JAK2, sequence (O60674 whole entry): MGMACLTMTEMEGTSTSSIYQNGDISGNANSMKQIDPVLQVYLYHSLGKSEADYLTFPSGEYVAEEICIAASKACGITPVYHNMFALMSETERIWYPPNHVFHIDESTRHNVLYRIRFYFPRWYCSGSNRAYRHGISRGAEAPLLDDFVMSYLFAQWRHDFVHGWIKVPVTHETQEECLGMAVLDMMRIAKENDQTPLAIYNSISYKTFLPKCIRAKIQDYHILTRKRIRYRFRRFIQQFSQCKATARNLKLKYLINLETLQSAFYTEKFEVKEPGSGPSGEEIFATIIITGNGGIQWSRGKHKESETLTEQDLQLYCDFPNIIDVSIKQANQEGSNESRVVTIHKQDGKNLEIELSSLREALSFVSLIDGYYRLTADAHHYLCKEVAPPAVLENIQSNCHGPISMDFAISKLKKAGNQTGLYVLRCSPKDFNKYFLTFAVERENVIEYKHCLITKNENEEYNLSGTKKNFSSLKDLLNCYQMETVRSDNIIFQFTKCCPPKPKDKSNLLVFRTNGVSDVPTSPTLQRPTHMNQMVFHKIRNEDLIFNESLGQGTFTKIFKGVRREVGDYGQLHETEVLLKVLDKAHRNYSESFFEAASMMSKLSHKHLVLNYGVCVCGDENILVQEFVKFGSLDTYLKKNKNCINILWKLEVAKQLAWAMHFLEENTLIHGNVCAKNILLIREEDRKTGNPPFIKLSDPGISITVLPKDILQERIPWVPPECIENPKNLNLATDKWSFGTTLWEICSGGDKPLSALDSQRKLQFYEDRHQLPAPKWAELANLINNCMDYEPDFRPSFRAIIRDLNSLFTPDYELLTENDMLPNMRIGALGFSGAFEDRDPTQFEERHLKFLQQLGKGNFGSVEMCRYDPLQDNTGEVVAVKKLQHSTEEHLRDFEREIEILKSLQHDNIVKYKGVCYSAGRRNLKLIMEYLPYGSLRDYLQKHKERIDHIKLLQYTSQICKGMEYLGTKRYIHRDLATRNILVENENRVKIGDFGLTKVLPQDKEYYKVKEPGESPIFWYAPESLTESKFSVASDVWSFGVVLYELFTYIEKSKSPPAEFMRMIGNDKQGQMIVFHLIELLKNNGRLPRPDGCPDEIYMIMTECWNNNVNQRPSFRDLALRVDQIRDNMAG
JAK1, sequence (P23458 whole entry): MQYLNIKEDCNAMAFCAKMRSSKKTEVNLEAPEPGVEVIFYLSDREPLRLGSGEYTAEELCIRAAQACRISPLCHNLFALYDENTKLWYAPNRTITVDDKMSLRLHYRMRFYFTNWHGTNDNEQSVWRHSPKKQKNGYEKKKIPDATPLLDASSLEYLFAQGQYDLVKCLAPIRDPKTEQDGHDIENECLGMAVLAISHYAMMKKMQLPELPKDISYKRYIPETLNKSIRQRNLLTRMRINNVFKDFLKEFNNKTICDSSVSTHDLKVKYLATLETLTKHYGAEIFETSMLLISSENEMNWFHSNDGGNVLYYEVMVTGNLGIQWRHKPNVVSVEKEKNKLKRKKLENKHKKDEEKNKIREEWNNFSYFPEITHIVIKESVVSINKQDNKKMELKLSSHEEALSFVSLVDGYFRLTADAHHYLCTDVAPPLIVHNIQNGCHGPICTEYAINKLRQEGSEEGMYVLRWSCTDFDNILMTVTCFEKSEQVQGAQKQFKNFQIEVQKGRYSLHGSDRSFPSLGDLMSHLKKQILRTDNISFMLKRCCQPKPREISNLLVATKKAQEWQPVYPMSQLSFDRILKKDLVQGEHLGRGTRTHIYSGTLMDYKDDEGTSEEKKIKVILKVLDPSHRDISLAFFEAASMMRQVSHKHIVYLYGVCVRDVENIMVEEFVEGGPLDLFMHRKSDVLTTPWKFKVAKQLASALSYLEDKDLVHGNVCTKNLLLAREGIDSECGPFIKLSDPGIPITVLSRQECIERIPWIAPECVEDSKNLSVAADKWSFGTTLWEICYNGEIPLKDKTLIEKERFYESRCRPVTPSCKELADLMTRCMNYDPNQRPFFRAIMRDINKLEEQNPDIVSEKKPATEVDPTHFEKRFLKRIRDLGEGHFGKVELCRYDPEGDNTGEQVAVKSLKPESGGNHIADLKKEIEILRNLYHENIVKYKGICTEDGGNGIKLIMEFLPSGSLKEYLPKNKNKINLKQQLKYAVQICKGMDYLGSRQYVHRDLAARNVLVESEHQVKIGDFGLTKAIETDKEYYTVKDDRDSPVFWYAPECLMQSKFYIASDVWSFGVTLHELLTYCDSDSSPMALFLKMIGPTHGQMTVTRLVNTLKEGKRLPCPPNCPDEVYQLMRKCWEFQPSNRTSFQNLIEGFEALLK
JAK3, sequence (P52333 whole entry): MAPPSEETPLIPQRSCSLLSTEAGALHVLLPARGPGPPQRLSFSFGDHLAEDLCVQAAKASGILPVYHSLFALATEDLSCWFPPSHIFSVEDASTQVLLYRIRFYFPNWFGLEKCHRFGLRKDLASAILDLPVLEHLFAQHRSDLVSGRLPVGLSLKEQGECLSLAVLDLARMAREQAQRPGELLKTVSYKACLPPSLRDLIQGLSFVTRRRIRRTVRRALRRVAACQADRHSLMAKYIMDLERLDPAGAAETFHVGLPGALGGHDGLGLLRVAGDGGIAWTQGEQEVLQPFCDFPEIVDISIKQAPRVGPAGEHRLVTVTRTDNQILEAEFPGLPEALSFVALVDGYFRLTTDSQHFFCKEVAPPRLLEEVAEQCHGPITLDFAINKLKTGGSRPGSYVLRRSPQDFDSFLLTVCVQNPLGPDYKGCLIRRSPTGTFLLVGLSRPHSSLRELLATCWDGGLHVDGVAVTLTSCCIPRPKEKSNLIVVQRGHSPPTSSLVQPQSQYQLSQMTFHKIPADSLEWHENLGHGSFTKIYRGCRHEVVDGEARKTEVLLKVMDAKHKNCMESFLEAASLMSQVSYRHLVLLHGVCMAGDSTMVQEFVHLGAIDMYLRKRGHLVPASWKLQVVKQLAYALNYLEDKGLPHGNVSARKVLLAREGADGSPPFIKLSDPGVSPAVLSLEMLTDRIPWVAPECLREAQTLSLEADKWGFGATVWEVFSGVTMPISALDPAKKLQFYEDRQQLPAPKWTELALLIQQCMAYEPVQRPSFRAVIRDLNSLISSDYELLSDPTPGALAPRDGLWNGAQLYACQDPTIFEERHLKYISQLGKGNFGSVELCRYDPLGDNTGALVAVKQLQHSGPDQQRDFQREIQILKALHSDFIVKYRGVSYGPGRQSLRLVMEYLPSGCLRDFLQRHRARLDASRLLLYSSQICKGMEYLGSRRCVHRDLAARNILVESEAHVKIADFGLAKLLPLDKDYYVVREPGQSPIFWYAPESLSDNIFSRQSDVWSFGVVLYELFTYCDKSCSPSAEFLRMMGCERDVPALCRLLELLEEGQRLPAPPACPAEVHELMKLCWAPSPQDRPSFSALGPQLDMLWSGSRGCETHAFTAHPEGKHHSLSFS

As for `C=CC(=O)N(C)c1cc(Nc2ncc(Cl)c(NCCCNC(=O)c3ccc(C)cc3)n2)ccc1F` [Example 83, N-(3-(5-chloro-2-(4-fluoro-3-(N-methylacrylamido)phenylamino)pyrimidinyl-4-amino)propyl)-4-methylbenzamide], in assay [1], the “JAK3 RV (ratio between the inhibitory rate of the test compound and that of Xeljanz)” value was 0.92; the inhibition at 0.03 µM came to 76%. In addition, in assay [2], the activity at 0.3 µM amounted to 4%. Further, in assay [3], the “JAK1 RV (ratio between the inhibitory rate of the test compound and that of Xeljanz)” value is listed as 0.42; the inhibition at 0.3 µM was found to be 36%. Moreover, in assay [4], the “JAK2 RV (ratio between the inhibitory rate of the test compound and that of Xeljanz)” value amounted to 0.04; the inhibition at 0.03 µM was 2%. In addition, in assay [5], the activity turned out to be 70%.

Take `C=CC(=O)N(C)c1cc(Nc2ncc(Cl)c(NCCCNC(=O)c3ccccc3)n2)ccc1F` [Example 87, N-(3-(5-chloro-2-(4-fluoro-3-(N-methylacrylamido)phenylamino)pyrimidinyl-4-amino)propyl)benzamide]: in assay [1], the “JAK3 RV (ratio between the inhibitory rate of the test compound and that of Xeljanz)” value is reported as 0.99; the inhibition at 0.03 µM came to 82%. The activity at 0.3 µM in assay [2] was determined as 3%. Besides, in assay [3], the “JAK1 RV (ratio between the inhibitory rate of the test compound and that of Xeljanz)” value came out at 0.51; the inhibition at 0.3 µM amounted to 43%. Moreover, in assay [4], the inhibition at 0.03 µM came out at 0%. Moreover, the activity in assay [5] is 22%.

Turning to `C=CC(=O)N(C)c1cc(Nc2ncc(Cl)c(NCCCNC(=O)c3cccc(C(F)(F)F)c3)n2)ccc1F` [Example 91, N-(3-(5-chloro-2-(4-fluoro-3-(N-methylacrylamido)phenylamino)pyrimidinyl-4-amino)propyl)-3-trifluoromethylbenzamide], in assay [1], the “JAK3 RV (ratio between the inhibitory rate of the test compound and that of Xeljanz)” value is 0.99; the inhibition at 0.03 µM came to 82%. For the same compound, the activity at 0.3 µM in assay [2] came to 2%. In addition, in assay [3], the “JAK1 RV (ratio between the inhibitory rate of the test compound and that of Xeljanz)” value is 0.24; the inhibition at 0.3 µM was 20%. The inhibition at 0.03 µM in assay [4] worked out at 0%. Moreover, the activity in assay [5] is 40%.

`C=CC(=O)N(C)c1cc(Nc2ncc(Cl)c(NCCCNC(=O)c3cccc(C#N)c3)n2)ccc1F` [Example 95, N-(3-(5-chloro-2-(4-fluoro-3-(N-methylacrylamido)phenylamino)pyrimidinyl-4-amino)propyl)-3-cyanobenzamide]: in assay [1], the “JAK3 RV (ratio between the inhibitory rate of the test compound and that of Xeljanz)” value is 1.01; the inhibition at 0.03 µM came to 84%. The activity at 0.3 µM in assay [2] stood at 3%. In assay [3], the “JAK1 RV (ratio between the inhibitory rate of the test compound and that of Xeljanz)” value is given as 0.53; the inhibition at 0.3 µM was 45%. Moreover, the inhibition at 0.03 µM in assay [4] is 0%. In assay [5], the activity turned out to be 3%.

As for `C=CC(=O)N(C)c1cc(Nc2ncc(Cl)c(NCCCNC(=O)c3ccc(C(F)(F)F)c(F)c3)n2)ccc1F` [Example 103, N-(3-(5-chloro-2-(4-fluoro-3-(N-methylacrylamido)phenylamino)pyrimidinyl-4-amino)propyl)-3-fluoro-4-trifluoromethylbenzamide], in assay [1], the “JAK3 RV (ratio between the inhibitory rate of the test compound and that of Xeljanz)” value came out at 1.04; the inhibition at 0.03 µM came out at 86%. The activity at 0.3 µM in assay [2] is 3%. In assay [3], the “JAK1 RV (ratio between the inhibitory rate of the test compound and that of Xeljanz)” value came out at 0.87; the inhibition at 0.3 µM was found to be 74%. In assay [4], the inhibition at 0.03 µM came to 0%. In addition, in assay [5], the activity turned out to be 55%.

In the case of `C=CC(=O)N(C)c1cc(Nc2ncc(Cl)c(NCCCNC(=O)c3cc(F)c(F)c(F)c3F)n2)ccc1F` [Example 107, N-(3-(5-chloro-2-(4-fluoro-3-(N-methylacrylamido)phenylamino)pyrimidinyl-4-amino)propyl)-2,3,4,5-tetrafluorobenzamide], in assay [1], the “JAK3 RV (ratio between the inhibitory rate of the test compound and that of Xeljanz)” value worked out at 1.01; the inhibition at 0.03 µM is 84%. In addition, the activity at 0.3 µM in assay [2] worked out at 2%. Also, in assay [3], the “JAK1 RV (ratio between the inhibitory rate of the test compound and that of Xeljanz)” value is 0.79; the inhibition at 0.3 µM came out at 67%. The inhibition at 0.03 µM in assay [4] was 0%. The activity in assay [5] turned out to be 59%.

With `C=CC(=O)N(C)c1cc(Nc2ncc(Cl)c(NCCCNC(=O)c3ccc(C(C)=O)cc3)n2)ccc1F` [Example 111, 4-acetyl-N-(3-(5-chloro-2-(4-fluoro-3-(N-methylacrylamido)phenylamino)pyrimidinyl-4-amino)propyl)benzamide], in assay [1], the “JAK3 RV (ratio between the inhibitory rate of the test compound and that of Xeljanz)” value amounted to 0.99; the inhibition at 0.03 µM was 82%. The activity at 0.3 µM in assay [2] is 3%. Besides, in assay [3], the “JAK1 RV (ratio between the inhibitory rate of the test compound and that of Xeljanz)” value worked out at 0.19; the inhibition at 0.3 µM is 16%. The inhibition at 0.03 µM in assay [4] worked out at 0%. Further, the activity in assay [5] turned out to be 67%.
